From patent US9012446B2, “Amino-oxazines and amino-dihydrothiazine compounds as beta-secretase modulators and methods of use” (Amgen Inc., priority 2010, dated 2015) come the findings set out here.

One test addresses BACE (Homo sapiens, UniProt P56817). As to the kind of experiment: In vitro enzymatic BACE FRET assay. The test is classed as biochemical. To be noted: average IC50, enzyme assay; read-out: BACE 1 FRET assay. The method, then: In Vitro Enzymatic BACE FRET (Fluorescence Resonance Energy Transfer) Assay (Enzyme Assay Data in the Example Table I) The assay buffer used in this screen is 0.05 M acetate, pH 4.2, 10% DMSO final, 100 uM genapol (which is a nonionic detergent, below its Critical Micelle Concentration). The beta secretase enzyme (0.2 nM) is pre-incubated for one hour with inhibitors, typically in about 1 uL of DMSO according to a serial dilution, are added thereto. This assay is effectively started by the addition of FRET substrate (50 nM) and the combination is incubated for one hour. The FRET assay is terminated with by addition of Tris buffer, which raises the pH to neutrality, and the fluorescence is determined. The FRET substrate is a peptide with commercially available fluorophore and quencher, on opposite sides of the BACE cleavage site. Proteolytic cleavage of the FRET substrate releases quenching of fluorescence (excitation 488 nm and emission […]).

The test system of a further test is Aβ40. Briefly: In vitro BACE cell-based assay (Aβ40 sandwich ELISA, cells stably expressing APP). The method, then:
In Vitro BACE Cell-Based Assay […] Cells stably expressing Amyloid Precursor Protein (APP) were plated at a density of 40K cells/well in 96 well plates (Costar). The cells were cultivated for 24 hours at 37° C. and 5% CO2 in DMEM supplemented with 10% FBS. The test compounds were then added to cells in 10-point dose response concentrations with the starting concentration being either 100 μM or 10 μM. The compounds were diluted from stock solutions in DMSO and the final DMSO concentration of the test compounds on cells was 0.1%. […] The IC50 of the compound was calculated from the percent of control or percent inhibition of Aβ40 as a function of the concentration of the test compound. The sandwich ELISA to detect Aβ40 was performed in 96 well microtiter plates, which were pre-treated with goat anti-rabbit IgG (Pierce). […] The optimal concentration for the pAb40 antibody was 3 μg/ml in Superblock/TBS (Pierce) that was supplemented with 0.05% Tween 20 (Sigma). […] Cellular supernatants were incubated with the capture antibody for 3 h at 4° C., followed by 3 wash steps in TBS-tween (0.05%). The detecting antibody incubation was for 2 h at 4° C., again followed by the wash steps as described previously. The final readout of the ELISA is Time-Resolved Fluorescence (counts per minute) using Delfia reagents Streptavidin-Europium and Enhancement solutions (Perkin Elmer) and the Victor 2 multilabel counter (Perkin Elmer).
Background: ELISA stands for enzyme-linked immunosorbent assay.

[1] abbreviates: Homo sapiens, HEK293, average IC50, read-out: HEK cell assay.
[2] abbreviates: average IC50, read-out: HEK cell assay.
Setting [3] is: Homo sapiens, HEK293, average IC50, cell assay, HEK cells.

Like-named read-outs stand apart in the source and are kept apart here.

BACE, sequence (P56817 46-501, species assumed): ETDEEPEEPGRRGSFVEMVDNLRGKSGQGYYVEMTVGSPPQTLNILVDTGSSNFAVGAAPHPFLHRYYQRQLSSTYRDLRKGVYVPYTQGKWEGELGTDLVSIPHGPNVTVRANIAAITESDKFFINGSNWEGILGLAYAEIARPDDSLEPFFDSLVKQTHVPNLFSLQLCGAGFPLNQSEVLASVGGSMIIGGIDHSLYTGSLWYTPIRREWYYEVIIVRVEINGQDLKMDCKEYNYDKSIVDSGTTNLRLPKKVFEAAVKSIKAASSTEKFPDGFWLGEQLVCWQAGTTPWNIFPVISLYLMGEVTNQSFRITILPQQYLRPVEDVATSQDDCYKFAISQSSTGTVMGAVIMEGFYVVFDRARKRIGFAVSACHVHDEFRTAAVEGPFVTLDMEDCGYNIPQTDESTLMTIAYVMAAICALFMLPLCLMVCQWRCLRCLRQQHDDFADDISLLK

Take `NC1=N[C@@]2(CO[C@H]1C1CCCCC1)c1cc(-c3cccnc3F)ccc1Oc1cnc(Cl)cc12` (racemic) [Example 56A, (3′S,6′S)-3-chloro-6′-cyclohexyl-7-(2-fluoropyridin-3-yl)-2′,6′-dihydrospiro[chromeno[2,3-c]pyridine-5,3′-[1,4]oxazin]-5′-amine]: the IC50 amounted to 30.7 nM on BACE and 138 nM in the test with Aβ40 (setting [1]).
For `NC1=N[C@]2(CO[C@H]1C1CCCCC1)c1cc(-c3cccnc3F)ccc1Oc1cnc(Cl)cc12` (racemic) [Example 56B, (3′R,6′S)-3-chloro-6′-cyclohexyl-7-(2-fluoropyridin-3-yl)-2′,6′-dihydrospiro[chromeno[2,3-c]pyridine-5,3′-[1,4]oxazin]-5′-amine], the IC50 on BACE was 1280 nM; in the test with Aβ40 (setting [1]) it was 452 nM.
Regarding `COc1cc(F)c2c(c1)C1(CCOC(N)=N1)c1cc(Br)ccc1O2` (racemic) [compound 20], the IC50 on BACE worked out at 15400 nM.
As for `NC1=N[C@]2(CCO1)c1cc(-c3cccnc3F)ccc1Oc1c2cc(-c2ccnc(F)c2)nc1F` (racemic) [compound 103], the IC50 at BACE was determined as 2.2 nM; in the test on Aβ40 (average IC50, cell assay, HEK cells), 6.9 nM.
Take `COc1cc(F)c2c(c1)[C@@]1(CCSC(N)=N1)c1cc(-c3cccnc3F)ccc1O2` (racemic) [compound 191]: the IC50 at BACE amounted to 87.3 nM; in the test with Aβ40 (setting [2]), 374 nM.
In the case of `NC1=N[C@]2(CO[C@@H]1C1CCOCC1)c1cc(-c3cccnc3F)ccc1Oc1cnc(Cl)cc12` (racemic) [compound 207], the results for the IC50 at BACE and with Aβ40 (setting [2]) were 11.5 nM and 21.3 nM, respectively.
Turning to `NC1=N[C@@]2(COC1)c1cc(Br)ccc1Oc1cnc(Cl)cc12` (single isomer, unassigned) [Example 9A], the IC50 on BACE was 4150 nM.
Turning to `NC1=N[C@]2(COC1)c1cc(Br)ccc1Oc1cnc(Cl)cc12` (single isomer, unassigned) [Example 9B], the IC50 on BACE is 23100 nM.
Take `NC1=N[C@]2(COC1)c1cc(-c3cccnc3F)ccc1Oc1c(F)cc(N3CCOCC3)cc12` [35B]: the IC50 on BACE turned out to be 211 nM; with Aβ40 (setting [3]) it was 86.2 nM.
Turning to `NC1=N[C@]2(COC1)c1cc(-c3cccnc3F)ccc1Oc1c(F)cc(-c3ccnc(F)c3)cc12` [36B], the IC50 at BACE is 140 nM; in the test with Aβ40 (setting [3]), 628 nM.
As to `CC(C)(F)COc1cc(F)c2c(c1)[C@@]1(COCC(N)=N1)c1cc(-c3cccnc3F)ccc1O2` [37B], the IC50 on BACE is 110 nM; with Aβ40 (setting [3]) it was 64.1 nM.
In the case of `NC1=N[C@@]2(COC1)c1cc(-c3cccnc3F)ccc1Oc1cnc(C3CCOCC3)cc12` [Example 34, (S)-7-(2-fluoropyridin-3-yl)-3-(tetrahydro-2H-pyran-4-yl)-2′,6′-dihydrospiro[chromeno[2,3-c]pyridine-5,3′-[1,4]oxazin]-5′-amine], the IC50 worked out at 0.7 nM on BACE and 0.9 nM with Aβ40 (setting [3]).
Consider `NC1=N[C@@]2(COC1)c1cc(-c3cccnc3F)ccc1Oc1c(F)cc(N3CCOCC3)cc12` [Example 35A, (S)-4′-fluoro-7′-(2-fluoropyridin-3-yl)-2′-morpholino-2,6-dihydrospiro[[1,4]oxazine-3,9′-xanthen]-5-amine], for which the IC50 at BACE came to 0.5 nM; with Aβ40 (setting [3]) it was 1.9 nM.
As to `NC1=N[C@@]2(COC1)c1cc(O)ccc1Oc1c(F)cc(-c3ccnc(F)c3)cc12` [Example 39, (S)-5-amino-4′-fluoro-2′-(2-fluoropyridin-4-yl)-2,6-dihydrospiro[[1,4]oxazine-3,9′-xanthen]-7′-ol], the IC50 on BACE is 368 nM; in the test with Aβ40 (setting [3]) it was 2590 nM.
For `NC1=N[C@@]2(COC1)c1cc(-c3cccnc3F)ccc1Oc1c(F)cc(C3CCOCC3)cc12` [Example 42, (S)-4′-fluoro-7′-(2-fluoropyridin-3-yl)-2′-(tetrahydro-2H-pyran-4-yl)-2,6-dihydrospiro[[1,4]oxazine-3,9′-xanthen]-5-amine] the same measures were 0.4 nM and 2.4 nM.
The like results for `CC(C)(C)COc1cc2c(cn1)Oc1ccc(-c3cccnc3F)cc1[C@@]21COCC(NC=O)=N1` [Example 43, (S)—N-(7-(2-fluoropyridin-3-yl)-3-(neopentyloxy)-2′,6′-dihydrospiro[chromeno[2,3-c]pyridine-5,3′-[1,4]oxazine]-5′-yl)formamide] were, in that order, 17.4 nM and 1.2 nM.
For the compound `CC(C)(C)COc1cc2c(cn1)Oc1ccc(N3CCC(F)(F)CC3)cc1[C@@]21COCC(N)=N1` [Example 44, (S)-7-(4,4-difluoropiperidin-1-yl)-3-(neopentyloxy)-2′,6′-dihydrospiro[chromeno[2,3-c]pyridine-5,3′-[1,4]oxazin]-5′-amine], the IC50 at BACE came out at 10.5 nM; with Aβ40 (setting [3]), 19.3 nM.
In the case of `COc1cc(F)c2c(c1)[C@]1(COCC(N)=N1)c1cc(N3CCC(F)(F)CC3)ccc1O2` [Example 45, (S)-7′-(4,4-difluoropiperidin-1-yl)-4′-fluoro-2′-methoxy-2,6-dihydrospiro[[1,4]oxazine-3,9′-xanthen]-5-amine], the IC50 on BACE amounted to 158 nM; in the test with Aβ40 (setting [3]) it was 420 nM.
In the case of `CC1(COc2cc(F)c3c(c2)[C@]2(COCC(N)=N2)c2cc(N4CCC(F)(F)CC4)ccc2O3)COC1` [Example 46, (S)-7′-(4,4-difluoropiperidin-1-yl)-4′-fluoro-2′-((3-methyloxetan-3-yl)methoxy)-2,6-dihydrospiro[[1,4]oxazine-3,9′-xanthen]-5-amine], the IC50 on BACE turned out to be 9.4 nM; in the test on Aβ40 (setting [1]), 32.1 nM.
`COc1cc(F)c2c(c1)[C@]1(COCC(N)=N1)c1cc(-c3cccnc3F)ccc1O2` [Example 48, (S)-4′-fluoro-7′-(2-fluoropyridin-3-yl)-2′-methoxy-2,6-dihydrospiro[[1,4]oxazine-3,9′-xanthen]-5-amine]: the IC50 was determined as 1.5 nM at BACE and 15.6 nM in the test with Aβ40 (setting [3]).
With `NC1=N[C@@]2(COC1)c1cc(-c3cccnc3F)ccc1Oc1cnc(OC(F)F)cc12` [Example 49, (S)-3-(difluoromethoxy)-7-(2-fluoropyridin-3-yl)-2′,6′-dihydrospiro[chromeno[2,3-c]pyridine-5,3′-[1,4]oxazin]-5′-amine], the IC50 at BACE is 6.7 nM; with Aβ40 (setting [1]) it was 11.5 nM.
As to `CC(C)(C)COc1ccc2c(c1)[C@]1(COCC(N)=N1)c1cc(Br)ccc1O2` [Example 67a, (3R)-2′-bromo-7′-(2,2-dimethylpropoxy)-6H-spiro[1,4-oxazine-3,9′-xanthen]-5-amine], the IC50 in the test with Aβ40 (setting [1]) was found to be 587 nM.
For the compound `NC1=NC2(COC1)c1cc(Br)ccc1Oc1cnc(Cl)cc12` (stereo not shown) [compound 9], the IC50 on BACE stood at 4130 nM.
Consider `NC1=NC2(CCS1)c1cc(Br)ccc1Oc1ccc(I)cc12` (stereo not shown) [compound 13], for which, at BACE, the IC50 was determined as 9960 nM.
With `NC1=NC2(CCO1)c1cc(I)ccc1Oc1ncc(Br)cc12` (stereo not shown) [compound 25], at BACE, the IC50 is 16000 nM.
Consider `COc1ccc2c(c1)[C@]1(COCC(N)=N1)c1cc(Br)ccc1O2` [compound 134], for which the IC50 at BACE was 7110 nM.
Same read-out and setting: for `COc1ccc2c(c1)C1(CCSC(N)=N1)c1cc(Br)ccc1O2` (stereo not shown) [compound 136] the value was 23700 nM; for `NC1=N[C@@]2(CCO1)c1cc(-c3cccnc3F)ccc1Oc1cnc(-c3ccccc3)cc12` [compound 138], 4.1 nM.
Regarding `COc1cc(F)c2c(c1)[C@@]1(CCOC(N)=N1)c1cc(-c3cccnc3F)ccc1O2` [compound 174], the IC50 at BACE was found to be 4220 nM.
`COc1cc(F)c2c(c1)[C@@]1(CCSC(N)=N1)c1cc(-c3cccnc3F)ccc1O2` [compound 186]: the IC50 at BACE stood at 9590 nM.
As for `NC1=N[C@@]2(CO[C@@H]1C(F)(F)F)c1cc(Br)ccc1Oc1cnc(Cl)cc12` [compound 205], the IC50 at BACE amounted to 20000 nM.
Consider `NC1=N[C@@]2(CCO1)c1cc(-c3cccnc3F)ccc1Oc1c2cc(-c2ccccc2)nc1F` [compound 230], for which the IC50 on BACE was determined as 2 nM.
As for `NC1=N[C@]2(CCO1)c1cc(-c3cccnc3F)ccc1Oc1c2cc(-c2ccccc2)nc1F` [compound 235], the IC50 at BACE worked out at 176 nM.
Regarding `CC1COC(N)=N[C@@]12c1cc(-c3cccnc3F)ccc1Oc1cnc(C3=CCCOC3)cc12` (stereo partly shown) [compound 261], the IC50 on BACE came out at 890 nM.
`C[C@@H]1COC(N)=N[C@]12c1cc(-c3cccnc3F)ccc1Oc1cnc(C3=CCCOC3)cc12` [compound 262]: the IC50 at BACE is 4.1 nM.
In the case of `C[C@H]1COC(N)=N[C@@]12c1cc(-c3cccnc3F)ccc1Oc1cnc(C3=CCCOC3)cc12` [compound 263], the IC50 on BACE came to 449 nM.
The same measure, in the same setting: next, `CC1COC(N)=N[C@]12c1cc(-c3cccnc3F)ccc1Oc1cnc(C3=CCCOC3)cc12` (stereo partly shown) [compound 264]: 3.7 nM.
